What was measured:
Assay in all cases: relative viability (nuclei count vs DMSO), 5 days (fraction); higher = more cells survive
XMD14-99 + Vorinostat = compound: CN1CCN(CC1)C2=CC(=C(C=C2)NC3=NC(=C(S3)C(=O)C4=C(C=CC=C4Cl)Cl)N)OC [XMD14-99] + O=C(CCCCCCC(=O)Nc1ccccc1)NO [Vorinostat] (partner 1 µM)
In short: (§1)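 The day after seeding in 1536-well plates, lung cancer cell lines were treated by pin tool with a single drug, or with a fixed anchor-drug dose together with five library-drug doses (not always all listed) in √10 steps. After 5 days, a combined fix-and-stain solution (final 0.05% Triton X-100, 1% formaldehyde, 1 ug/ml Hoechst) was added. Nuclei counted on 4× images gave relative viability as treated counts over vehicle counts, reported as the median of duplicate plates.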

AZD1208 + Luminespib = compound: N[C@@H]1CCCN(c2c(/C=C3\SC(=O)NC3=O)cccc2-c2ccccc2)C1 [AZD1208] + CCNC(=O)c1noc(-c2cc(C(C)C)c(O)cc2O)c1-c1ccc(CN2CCOCC2)cc1 [Luminespib] (partner 0.01 µM)
In short: as §1

AZD1208 + Linsitinib = compound: N[C@@H]1CCCN(c2c(/C=C3\SC(=O)NC3=O)cccc2-c2ccccc2)C1 [AZD1208] + C[C@]1(O)C[C@@H](c2nc(-c3ccc4ccc(-c5ccccc5)nc4c3)c3c(N)nccn32)C1 [Linsitinib] (partner 1 µM)
In short: as §1

AZD1208 + Olaparib = compound: N[C@@H]1CCCN(c2c(/C=C3\SC(=O)NC3=O)cccc2-c2ccccc2)C1 [AZD1208] + O=C(c1cc(Cc2n[nH]c(=O)c3ccccc23)ccc1F)N1CCN(C(=O)C2CC2)CC1 [Olaparib] (partner 8 µM)
In short: as §1

| Cell Line | relative viability (XMD14-99 + Vorinostat; first compound 0.08 µM) | relative viability (XMD14-99 + Vorinostat; first compound 0.8 µM) | relative viability (XMD14-99 + Vorinostat; first compound 2.53 µM) | relative viability (XMD14-99 + Vorinostat; first compound 8 µM) | relative viability (AZD1208 + Luminespib; first compound 0.08 µM) | relative viability (AZD1208 + Luminespib; first compound 0.253 µM) | relative viability (AZD1208 + Luminespib; first compound 0.8 µM) | relative viability (AZD1208 + Luminespib; first compound 2.53 µM) | relative viability (AZD1208 + Luminespib; first compound 8 µM) | relative viability (AZD1208 + Linsitinib; first compound 0.08 µM) | relative viability (AZD1208 + Linsitinib; first compound 0.253 µM) | relative viability (AZD1208 + Linsitinib; first compound 0.8 µM) | relative viability (AZD1208 + Linsitinib; first compound 2.53 µM) | relative viability (AZD1208 + Linsitinib; first compound 8 µM) | relative viability (AZD1208 + Olaparib; first compound 0.08 µM) | relative viability (AZD1208 + Olaparib; first compound 0.253 µM) | relative viability (AZD1208 + Olaparib; first compound 0.8 µM) | relative viability (AZD1208 + Olaparib; first compound 2.53 µM) | relative viability (AZD1208 + Olaparib; first compound 8 µM) |
| --- | --- | --- | --- | --- | --- | --- | --- | --- | --- | --- | --- | --- | --- | --- | --- | --- | --- | --- | --- |
| LCLC-103H | 0.786 | 0.798 | 0.759 | 0.664 | 1.01 | 1.01 | 0.995 | 0.859 | 0.944 | 1.04 | 1.09 | 1.06 | 1.11 | 0.891 | 0.774 | 0.798 | 0.811 | 0.81 | 0.786 |
| LCLC-97TM1 | 0.732 | 0.661 | 0.604 | 0.315 | 0.829 | 0.754 | 0.604 | 0.632 | 0.727 | 0.156 | 0.206 | – | 0.133 | 0.132 | 0.327 | 0.396 | 0.385 | 0.316 | 0.252 |
| NCI-H838 | 0.685 | 0.626 | 0.577 | 0.414 | 0.294 | 0.211 | 0.252 | 0.327 | 0.22 | 0.992 | 1.09 | 0.815 | 1.02 | 0.817 | 0.789 | 0.796 | 0.72 | 0.759 | 0.753 |
| NCI-H1355 | 0.636 | 0.604 | 0.586 | 0.556 | 0.708 | 0.598 | 0.611 | 0.699 | 0.525 | 0.846 | 0.921 | 0.718 | 0.737 | 0.695 | 0.717 | 0.689 | 0.672 | 0.68 | 0.657 |
| HOP-62 | 0.668 | 0.804 | 0.661 | 0.441 | 0.918 | 1.07 | 0.904 | 0.916 | 0.956 | 1.06 | 0.843 | 1.05 | 1.11 | 0.623 | 0.39 | 0.417 | 0.326 | 0.341 | 0.37 |
| NCI-H2087 | 0.617 | 0.668 | 0.864 | 0.449 | 0.166 | 0.145 | 0.14 | 0.141 | 0.171 | 0.87 | 0.941 | 0.934 | 1 | 0.787 | 0.543 | 0.548 | 0.513 | 0.515 | 0.435 |
